# Calls of active or inactive are those of the source. Rule as the data show it, for most assays here: actives have a measured EC50 and inactives only a lower limit.
# System: not listed separately
# Assay: NIH-3T3 fibroblast cytotoxicity, dose response, cytotoxicity control, cell-based, fluorescence, Alamar Blue, secondary assay (AID 2327);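 also: NIH-3T3 mouse fibroblasts cultured with fluconazole at 8 µg/mL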
# Format: functional
# Settings: not given
row,SMILES,EC50
1,Cc1cc(Oc2ccccc2)nc(-c2ccccc2O)n1,> 150 µM (inconclusive)
2,CCn1cc(C(=O)c2ccccc2)c2ccccc21,> 160 µM (inactive)
3,CCOc1cc(/C=N/NC(=O)c2cccnc2)ccc1OCC(N)=O,> 150 µM (inactive)
4,Oc1cccc(Nc2ncnc3c2oc2ccccc23)c1,> 160 µM (inactive)
5,COC(CN(C)C(=O)c1ccc2c(c1)NC(=O)c1ccccc1S2)OC,> 150 µM (inconclusive)
6,CCn1c2ccccc2c2cc(NC(=O)C(C)C)ccc21,63.3 µM (active)
7,Cc1ccccc1Nc1ncccc1C(=O)N1CCOCC1,> 160 µM (inactive)
8,Fc1ccc(N/N=C/c2cccnc2)c(F)c1,16.3 µM (inconclusive)

# System: not listed separately
# Assay: viability of uninfected HEp-2 cells – cell-based, HTS, cytotoxicity control for RSV inhibitor project, dose response (AID 2410)
# Format: functional
# Settings: human respiratory syncytial virus
row,SMILES,CC50
1,COc1ccc(Nc2cccc(Cl)c2)c(C(=O)O)c1,25.3 µM (active)

# System: not listed separately
# Assay: luciferase reporter signal suppression in cells – H4 neuroglioma cells, luminescence, dose response (AID 1990)
# Format: functional, cell-based
# Settings: not given
row,SMILES,EC50
1,Cc1cc(C)c(S(C)(=O)=O)c(Oc2ccc(C(C)(C)C)cc2)n1,15.7 µM (active)

# System: not listed separately
# Assay: Luminescence Cell-Based Dose Response HTS to Identify Activators of Luciferase Translation or Activity in H4 […] Cells. [Related pubchem assays: 1829 (Project Summary), 1814 (Primary HTS)]
# Format: functional
# Settings: not given
row,SMILES,EC50
1,CCOC(=O)c1nnc2cc(-c3ccc(Br)cc3)nn2c1C,27.6 µM (active)
2,O=C(Nc1ccccc1)OCCOc1ccccc1,30.2 µM (active)
3,O=C(N/N=C/c1ccccc1O)NC12CC3CC(CC(C3)C1)C2,28.5 µM (active)

# System: Streptococcus sp. 'group A'
# Assay: Streptococcus pyogenes SK(-)GAS viability under kanamycin – luminescence, BacTiterGlo, confirmation, counter-screen for streptokinase expression inhibitor project, dose response (AID 1900)
# Format: functional, organism-based
# Settings: Streptococcus sp. 'group A'
row,SMILES,EC50
1,O=C(N/N=C/c1ccccc1O)NC12CC3CC(CC(C3)C1)C2,22.3 µM (active)

# System: not listed separately
# Assay: Luminescence Cell-Based Dose Response HTS to Identify Inhibitors of 5'UTR Stem-Loop Driven Prion Protein mRNA Translation in H4 Neuroglioblastoma Cells. [Related pubchem assays: 1827 (Project Summary), 1813 (Primary HTS)]
# Format: functional
# Settings: not given
row,SMILES,EC50
1,Cc1cc(C)c(S(C)(=O)=O)c(Oc2ccc(C(C)(C)C)cc2)n1,1.08 µM (active)

# System: H4
# Assay: Luminescence Cell-Based Dose Response HTS to Identify Activators of 5'UTR Stem-Loop Driven Prion Protein mRNA Translation in H4 Neuroglioblastoma Cells. [Related pubchem assays: 1829 (Project Summary), 1814 (Primary HTS)]
# Format: functional
# Settings: Homo sapiens
row,SMILES,EC50
1,CCOC(=O)c1nnc2cc(-c3ccc(Br)cc3)nn2c1C,88.8 µM (active)
2,O=C(Nc1ccccc1)OCCOc1ccccc1,93.6 µM (active)
3,O=C(N/N=C/c1ccccc1O)NC12CC3CC(CC(C3)C1)C2,> 120 µM (not active)

# Biological target: T1, Heat shock factor protein 1 (Mus musculus, UniProt P38532)
# T1 sequence (P38532 whole entry): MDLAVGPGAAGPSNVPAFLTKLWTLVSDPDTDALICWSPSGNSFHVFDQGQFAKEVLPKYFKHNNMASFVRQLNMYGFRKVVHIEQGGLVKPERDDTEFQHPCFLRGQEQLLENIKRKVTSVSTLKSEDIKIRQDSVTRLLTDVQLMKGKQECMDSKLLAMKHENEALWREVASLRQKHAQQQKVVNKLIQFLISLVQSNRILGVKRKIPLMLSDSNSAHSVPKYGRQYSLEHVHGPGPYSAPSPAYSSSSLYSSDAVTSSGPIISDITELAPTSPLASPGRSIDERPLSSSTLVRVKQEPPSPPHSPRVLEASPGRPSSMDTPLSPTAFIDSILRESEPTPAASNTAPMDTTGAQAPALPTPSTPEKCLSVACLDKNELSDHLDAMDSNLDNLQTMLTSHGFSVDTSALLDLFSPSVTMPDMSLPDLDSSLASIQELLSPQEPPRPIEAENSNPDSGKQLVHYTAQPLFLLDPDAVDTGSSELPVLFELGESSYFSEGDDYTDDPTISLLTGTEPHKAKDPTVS
# Assay: decrease of HSF1-responsive luciferase luminescence – cell-based, NIH3T3, dose retest, confirmation (AID 2382);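 also: NIH3T3 fibroblasts with HSF1-driven luciferase reporter stressed by proteasome inhibitor MG132; luminescence from HSF1-driven luciferase expression after 8 hours of MG132 stress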
# Format: functional
# Settings: not given
row,SMILES,EC50
1,N#Cc1cccn1-c1nccs1,> 195 µM (not active)
2,Cc1cc(Nc2cccc(Cl)c2)nc(-c2ccccc2O)n1,> 195 µM (not active)
3,COc1cccc(NC(=O)Nc2nnc(Cc3ccccc3F)s2)c1,> 195 µM (not active)
4,O=c1c2c3c(sc2nc(NCCOCCO)n1Cc1ccco1)CCCCC3,> 195 µM (not active)
5,CCCCn1c(N(CCOC(C)=O)C(C)=O)nc2ccccc21,> 195 µM (not active)
6,CSc1nccn1C(=O)c1ccccc1[N+](=O)[O-],> 195 µM (not active)
7,CC(OC(=O)CN1C(=O)c2ccccc2C1=O)C(=O)NC1CCCCC1C (stereo not given),> 195 µM (not active)
8,O=C(Nc1ccccc1)OCCOc1ccccc1,> 195 µM (not active)
9,CCOC(=O)c1cc(CC)sc1NC=C1C(=O)CCCC1=O,> 195 µM (not active)
10,CCOC(=O)C1CCN(C(=O)CCS(=O)(=O)c2ccc3c(c2)CC(C)N3C(=O)CC)CC1 (stereo not given),> 195 µM (not active)
11,CCCC(NC(=O)COc1cc2c(c3oc(=O)cc(C)c13)CCC(C)(C)O2)C(=O)O (stereo not given),> 195 µM (not active)
12,O=C(N1CCOCC1)C12CCC3CC(CC(C3)C1)C2,> 195 µM (not active)
13,CCOC(=O)c1c(NC(=O)c2ccccc2)sc2c(O)c(CN(CC)CC)ccc12,> 195 µM (not active)
14,COc1ccccc1Nc1ccc2nonc2c1[N+](=O)[O-],> 195 µM (not active)
15,Cc1ccc(C(=O)CSc2cnc3ccccc3n2)cc1C,4.3 µM (active)

# System: not listed separately
# Assay: alpha-synuclein stem-loop luciferase translation blockers – H4 neuroglioma cells, luminescence, confirmation (AID 1988)
# Format: functional, cell-based
# Settings: not given
row,SMILES,EC50
1,Cc1cc(C)c(S(C)(=O)=O)c(Oc2ccc(C(C)(C)C)cc2)n1,80.7 µM (active)

# Biological target: T2, Streptokinase A (Streptococcus pyogenes serotype M1, UniProt P10520)
# T2 sequence (P10520 whole entry): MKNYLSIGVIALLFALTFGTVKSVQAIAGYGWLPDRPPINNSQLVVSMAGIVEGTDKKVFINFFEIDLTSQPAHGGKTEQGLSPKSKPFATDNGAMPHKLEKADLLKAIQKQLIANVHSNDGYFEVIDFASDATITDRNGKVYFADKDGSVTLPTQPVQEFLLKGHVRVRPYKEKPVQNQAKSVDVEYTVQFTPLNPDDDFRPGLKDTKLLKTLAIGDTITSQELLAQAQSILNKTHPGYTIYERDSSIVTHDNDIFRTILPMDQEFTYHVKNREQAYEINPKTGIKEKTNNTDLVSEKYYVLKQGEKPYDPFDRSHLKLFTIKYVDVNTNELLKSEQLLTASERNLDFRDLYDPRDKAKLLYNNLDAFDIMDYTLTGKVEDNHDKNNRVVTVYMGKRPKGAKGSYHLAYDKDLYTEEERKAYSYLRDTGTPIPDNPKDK
# Assay: viability-normalized secreted streptokinase activity reduction – plasminogen activation absorbance, OD405, dose response (AID 1914);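 also: secreted streptokinase activity via plasminogen activation per viability signal from cell pellet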
# Format: functional, Streptococcus pyogenes M1 GAS
# Settings: not given
row,SMILES,EC50
1,O=C(N/N=C/c1ccccc1O)NC12CC3CC(CC(C3)C1)C2,> 150 µM (not active)

# System: not listed separately
# Assay: fluconazole-exposed Candida albicans growth modulators – fluorescence, retest, confirmation (AID 2467)
# Format: functional, cell-based
# Settings: not given
row,SMILES,EC50
1,Cc1cc(Oc2ccccc2)nc(-c2ccccc2O)n1,> 38 µM (not active)
2,CCn1cc(C(=O)c2ccccc2)c2ccccc21,3.63 µM (active)
3,CCOc1cc(/C=N/NC(=O)c2cccnc2)ccc1OCC(N)=O,> 38 µM (not active)
4,Oc1cccc(Nc2ncnc3c2oc2ccccc23)c1,3.71 µM (active)
5,COC(CN(C)C(=O)c1ccc2c(c1)NC(=O)c1ccccc1S2)OC,> 38 µM (not active)
6,CCn1c2ccccc2c2cc(NC(=O)C(C)C)ccc21,> 38 µM (not active)
7,Cc1ccccc1Nc1ncccc1C(=O)N1CCOCC1,> 38 µM (not active)
8,Fc1ccc(N/N=C/c2cccnc2)c(F)c1,> 38 µM (not active)

# System: not listed separately
# Assay: Trypanosoma cruzi growth suppression in host cells – NIH3T3 host cells, beta-gal luminescence, confirmation (AID 2044);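 also: intracellular parasites grown in NIH/3T3 mouse fibroblasts as host cells; luminescent beta-galactosidase reporter signal from transgenic T. cruzi replicating inside host cells; inhibitors lower the luminescence signal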
# Format: functional, cell-based
# Settings: not given
row,SMILES,EC50
1,Cc1ccc2c(c1)S/C(=C/c1ccc[n+](CCO)c1)N2C,0.832 µM (active)
2,CN1/C(=C\P(=O)(N(C)C)N(C)C)C(C)(C)c2ccccc21,2.96 µM (active)
3,O=C(Nc1cnn(C23CC4CC(CC(C4)C2)C3)c1)c1cc(-c2ccccc2)on1,1.55 µM (active)

# System: not listed separately
# Assay: NIH3T3 cell viability loss – ATP luminescence, mouse fibroblasts, counter-screen, dose response (AID 2010);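 also: cells exposed to compound for about 90 hours before reading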
# Format: functional, cell-based
# Settings: NIH3T3
row,SMILES,EC50
1,Cc1ccc2c(c1)S/C(=C/c1ccc[n+](CCO)c1)N2C,> 60 µM (not active)
2,CN1/C(=C\P(=O)(N(C)C)N(C)C)C(C)(C)c2ccccc21,> 60 µM (not active)
3,O=C(Nc1cnn(C23CC4CC(CC(C4)C2)C3)c1)c1cc(-c2ccccc2)on1,> 60 µM (not active)

# System: Streptococcus
# Assay: GAS UMAA2166 growth inhibition – luminescence, BacTiterGlo, counter-screen for streptokinase expression inhibitor project, dose response (AID 1915);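 also: potency for reduction of bacterial viability or growth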
# Format: functional, organism-based
# Settings: Streptococcus
row,SMILES,EC50
1,O=C(N/N=C/c1ccccc1O)NC12CC3CC(CC(C3)C1)C2,15.1 µM (active)

# System: not listed separately
# Assay: Luminescence Cell-Based Dose Retest to Confirm Inhibitors of Cancer Stem Cells. [Related pubchem assays (depositor defined):AID2717, AID2721]
# Format: functional, Homo sapiens
# Settings: Homo sapiens
row,SMILES,AC50
1,CCCCOc1ccc(S(=O)(=O)N2CCN(c3ccc(N4CCN(CC)CC4)nn3)CC2)cc1,< 0.16 µM (active)
2,CCOc1ccc(S(=O)(=O)N2CCN=C2c2ccccc2)cc1,3.19 µM (active)
3,O=C(Nc1cnn(C23CC4CC(CC(C4)C2)C3)c1)c1cc(-c2ccccc2)on1,0.296 µM (active)
4,Cn1c(-c2ccsc2)c(-c2cccs2)c2cc(-c3ccc4[nH]ccc4c3)ccc21,9.76 µM (active)

# Biological target: T1, Heat shock factor protein 1
# Assay: enhancement of HSF1-driven luciferase signal – cell-based, NIH3T3, luminescence, dose retest, confirmation (AID 435004);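 also: stress induced by proteasome inhibitor MG132 added 30 min after compound; luciferase reporter driven by HSF1 response element in NIH3T3 cells; actives raise luminescence as potentiators of the MG132 stress response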
# Format: functional
# Settings: not given
row,SMILES,EC50
1,CCN1CC(CN(C)Cc2nc(COc3ccccc3)no2)CC1=O (stereo not given),> 260 µM (inactive)
2,CCCNC(=O)Nc1ccc(C)cc1C,> 260 µM (inactive)
3,CCN(CC)S(=O)(=O)c1cccc(C(=O)OCC(=O)N2CC(=O)Nc3ccccc32)c1,> 260 µM (inactive)
4,CCN(CC(=O)Nc1cccc(OC)c1)CC(=O)Nc1ccc(Br)c(C)c1,61.1 µM (active)
5,CCc1ccccc1NS(=O)(=O)c1cc2c3c(c1)CCN3C(=O)CC2,> 260 µM (inactive)

# Biological target: FAD-linked sulfhydryl oxidase ALR (Homo sapiens, UniProt P55789)
# Sequence (P55789 whole entry): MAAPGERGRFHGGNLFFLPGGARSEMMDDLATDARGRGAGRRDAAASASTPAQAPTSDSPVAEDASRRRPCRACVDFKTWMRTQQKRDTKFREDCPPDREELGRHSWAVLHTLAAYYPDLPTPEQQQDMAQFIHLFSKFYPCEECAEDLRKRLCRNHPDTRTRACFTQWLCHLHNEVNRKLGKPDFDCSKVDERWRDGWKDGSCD
# Assay: ALR-catalysed DTT oxidation blockers – biochemical, H2O2 detection, luminescence, cherry-pick, dose response (AID 493248)
# Settings: not given
row,SMILES,AC50
1,COc1ccc(N2CCN(CC(=O)Nc3ccc(C)cc3)CC2)cc1,3 µM (active)
2,COc1cc(NC(=O)Nc2cccc(C(C)=O)c2)cc(OC)c1OC,1.72 µM (active)
3,Nc1ccc(CCc2nc3ccccc3o2)cc1,1.16 µM (active)
4,O=C(O)c1ccc(N/N=C/c2cn(-c3ccccc3)nc2-c2cccs2)cc1,3.74 µM (active)
5,COc1ccc(Nc2cccc(Cl)c2)c(C(=O)O)c1,2.02 µM (active)
6,COc1ccc(CSC2=NCCN2)cc1Cl,0.021 µM (active)
7,Sc1nnc(Cc2noc3ccccc23)n1-c1ccccc1,5.61 µM (active)
8,COc1cc2c(cc1OC)CN(c1ccc([N+](=O)[O-])cc1C#N)CC2,> 100 µM (inactive)
9,COc1cc(OC)c2ccc(=O)oc2c1C(CCN1CCCC1)c1ccc(N(C)C)cc1 (stereo not given),3.33 µM (active)
10,COc1ccccc1-c1nnc(S)n1Cc1ccccc1,3.09 µM (active)
11,CCCCN(CCCNc1[nH]cnc2ncnc1-2)c1ccccc1,0.108 µM (active)
12,COc1ccc(OC)c(CNc2ccc3c(c2)nc(C)n3C)c1,5.53 µM (active)

# System: INS1
# Assay: INS-1E survival protection against cytokine death – cell-based, luminescence, retest, dose response (AID 449756);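 also: cell death triggered by IL-1 beta plus TNF-alpha plus IFN-gamma mixture; protective hits raise ATP signal compared with cytokine alone wells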
# Format: functional
# Settings: Rattus norvegicus
row,SMILES,AC50
1,Cc1ccc2c(c1)S/C(=C/c1ccc[n+](CCO)c1)N2C,2.98 µM (active)
2,CN1/C(=C\P(=O)(N(C)C)N(C)C)C(C)(C)c2ccccc21,4.32 µM (active)
3,CCN(CC)c1ccc(/C=N/NC(=O)Cc2cccs2)c(O)c1,0.916 µM (active)

# Biological target: Cytochrome P450 3A4 (Homo sapiens, UniProt P08684);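 also: CYP3A4 tested as one member of a cytochrome P450 panel screen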
# Sequence (P08684 whole entry): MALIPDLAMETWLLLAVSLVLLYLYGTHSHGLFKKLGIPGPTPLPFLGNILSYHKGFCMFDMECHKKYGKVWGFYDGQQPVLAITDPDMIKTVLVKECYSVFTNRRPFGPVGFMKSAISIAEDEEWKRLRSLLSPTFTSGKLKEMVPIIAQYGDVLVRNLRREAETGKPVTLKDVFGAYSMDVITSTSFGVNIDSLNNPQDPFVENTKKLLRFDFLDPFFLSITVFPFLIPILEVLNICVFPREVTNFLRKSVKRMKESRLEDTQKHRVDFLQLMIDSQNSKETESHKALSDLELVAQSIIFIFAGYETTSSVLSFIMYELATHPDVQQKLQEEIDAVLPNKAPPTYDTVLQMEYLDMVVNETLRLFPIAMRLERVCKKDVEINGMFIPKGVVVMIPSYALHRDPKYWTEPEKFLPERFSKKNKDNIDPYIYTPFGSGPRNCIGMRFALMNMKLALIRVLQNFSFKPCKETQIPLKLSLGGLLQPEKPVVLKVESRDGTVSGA
# Settings: not given
row,SMILES,AC50
1,Cc1cc(C)c(S(C)(=O)=O)c(Oc2ccc(C(C)(C)C)cc2)n1,14.1 µM (inconclusive)

# Source: ChEMBL document CHEMBL1201862, “PubChem BioAssay data set” (2004)
